pIC50: −log10 of the molar value. Read-outs that look alike come from different tables or passages of the source.
Experiments:
[1] = target: T1, human DGKζ (Homo sapiens, UniProt Q13574); assay: DGKζ LIPGLO assay (extruded liposome substrate), in vitro DGK inhibition; format: biochemical; conditions: read-out: DGKz LIPGLO IC50
T1 construct: TVMV protease cleavage site (C); Hexa-His (C); made in house; host or cells: Sf9 insect cells (baculovirus, Bac-to-Bac)

[2] = target: T2, human DGKα (Homo sapiens, UniProt P23743); assay: DGKα LIPGLO assay (extruded liposome substrate), in vitro DGK inhibition; format: biochemical; conditions: read-out: DGKa LIPGLO IC50
T2 construct: TVMV protease cleavage site (C); Hexa-His (C); made in house; host or cells: Sf9 insect cells (baculovirus, Bac-to-Bac)
T2 sequence (P23743 with tags, fused parts or gaps): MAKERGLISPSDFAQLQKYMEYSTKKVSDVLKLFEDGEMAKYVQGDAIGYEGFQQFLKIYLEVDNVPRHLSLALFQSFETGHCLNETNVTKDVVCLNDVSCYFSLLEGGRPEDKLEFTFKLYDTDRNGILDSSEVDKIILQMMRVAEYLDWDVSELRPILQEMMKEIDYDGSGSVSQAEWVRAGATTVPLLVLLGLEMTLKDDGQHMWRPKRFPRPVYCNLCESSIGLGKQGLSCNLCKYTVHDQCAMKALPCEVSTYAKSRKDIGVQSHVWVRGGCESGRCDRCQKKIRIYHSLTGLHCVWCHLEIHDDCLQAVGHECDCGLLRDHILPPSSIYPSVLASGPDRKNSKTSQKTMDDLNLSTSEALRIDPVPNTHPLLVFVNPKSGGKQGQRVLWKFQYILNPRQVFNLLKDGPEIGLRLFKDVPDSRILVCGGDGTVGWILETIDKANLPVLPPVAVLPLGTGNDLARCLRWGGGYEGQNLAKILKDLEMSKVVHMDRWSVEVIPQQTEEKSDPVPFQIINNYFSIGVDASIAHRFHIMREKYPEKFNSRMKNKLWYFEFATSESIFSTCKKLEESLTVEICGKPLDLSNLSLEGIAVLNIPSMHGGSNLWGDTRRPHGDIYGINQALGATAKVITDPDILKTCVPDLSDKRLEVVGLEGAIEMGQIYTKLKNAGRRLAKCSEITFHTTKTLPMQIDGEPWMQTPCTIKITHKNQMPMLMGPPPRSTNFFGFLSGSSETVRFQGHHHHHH

T1 sequence (Q13574 with tags, fused parts or gaps isoform Q13574-4): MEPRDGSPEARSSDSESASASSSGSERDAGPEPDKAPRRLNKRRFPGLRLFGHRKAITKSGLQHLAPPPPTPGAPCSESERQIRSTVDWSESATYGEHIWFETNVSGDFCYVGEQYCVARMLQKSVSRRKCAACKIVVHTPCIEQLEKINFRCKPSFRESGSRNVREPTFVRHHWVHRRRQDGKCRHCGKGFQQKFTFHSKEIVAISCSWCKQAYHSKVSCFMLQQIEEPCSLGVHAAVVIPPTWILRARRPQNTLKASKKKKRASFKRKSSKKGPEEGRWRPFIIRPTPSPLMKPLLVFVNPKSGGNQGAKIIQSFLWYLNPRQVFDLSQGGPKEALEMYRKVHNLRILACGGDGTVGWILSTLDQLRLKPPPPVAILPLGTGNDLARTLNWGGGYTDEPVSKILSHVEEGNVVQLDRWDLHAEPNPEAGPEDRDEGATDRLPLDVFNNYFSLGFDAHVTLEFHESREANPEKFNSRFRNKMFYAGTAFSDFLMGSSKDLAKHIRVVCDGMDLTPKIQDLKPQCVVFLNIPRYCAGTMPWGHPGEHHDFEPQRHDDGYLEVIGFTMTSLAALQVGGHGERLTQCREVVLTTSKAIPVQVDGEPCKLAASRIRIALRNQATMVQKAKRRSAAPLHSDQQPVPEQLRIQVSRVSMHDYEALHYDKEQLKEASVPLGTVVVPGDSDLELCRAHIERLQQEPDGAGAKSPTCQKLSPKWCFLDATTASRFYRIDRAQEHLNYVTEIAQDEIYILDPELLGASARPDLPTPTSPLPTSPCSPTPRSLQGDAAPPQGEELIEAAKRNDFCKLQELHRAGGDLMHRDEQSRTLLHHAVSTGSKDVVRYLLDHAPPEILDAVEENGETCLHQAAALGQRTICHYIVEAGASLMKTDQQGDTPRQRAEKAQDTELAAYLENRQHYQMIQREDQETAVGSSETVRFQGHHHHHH

SMILES	pIC50 ([1]; liposome (LIPGLO) assay)	pIC50 ([2]; liposome (LIPGLO) assay)	pIC50 ([1]; DGKζ liposome (LIPGLO) assay)	pIC50 ([2]; DGKα liposome (LIPGLO) assay)
CC(C)Oc1cccc(CN2C[C@H](C)N(c3cc(=O)n(C)c4ccc(C#N)nc34)C[C@H]2C)c1 [Example 594]	5.85	5.15	–	–
CC(c1cccc(OC(F)F)c1)N1C[C@H](C)N(c2cc(=O)n(C)c3ccc(C#N)nc23)C[C@H]1C (single isomer, unassigned) [Example 1271]	7.52	6.82	–	–
C[C@@H]1CN(c2cc(=O)n(C)c3ccc(C#N)nc23)[C@@H](C)CN1C(c1ccc(F)cc1)c1nc(C2CC2)co1 (stereo partly drawn) [Example 776, 8-((2S,5R)-4-((4-cyclopropyloxazol-2-yl)(4-fluorophenyl)methyl)-2,5-dimethylpiperazin-1-yl)-5-methyl-6-oxo-5,6-dihydro-1,5-naphthyridine-2-carbonitrile]	–	–	7.42	7.26
CC(c1cccc(OC(F)F)c1)N1C[C@H](C)N(c2cc(=O)n(C)c3ccc(C#N)nc23)C[C@H]1C (single isomer, unassigned) [Example 1272]	6.18	5.30	–	–
CC[C@@H]1CN(c2cc(=O)n(C)c3ccc(C#N)nc23)[C@@H](C)CN1C(C)c1ccc(C(F)(F)F)cc1 (single isomer, unassigned) [Example 1094]	5.68	6.34	–	–
CCOC[C@@H]1CN(c2cc(=O)n(C)c3ccc(C#N)nc23)[C@@H](C)CN1C(C)c1ccc(OC(F)(F)F)cc1 (single isomer, unassigned) [Example 1398]	5.80	5.26	–	–
CSCC(c1ccc(F)cc1)N1C[C@H](C)N(c2cc(=O)n(C)c3ccc(C#N)nc23)C[C@H]1C (single isomer, unassigned) [Example 1319]	6.21	7.00	–	–
Cn1c(=O)c(C#N)c(N2CCN(C(c3ccc(F)cc3)c3ccc(F)cc3)C(C(=O)O)C2)c2nc(Br)ccc21 (centres unmarked) [Example 52, 1-(bis(4-fluorophenyl)methyl)-4-(6-bromo-3-cyano-1-methyl-2-oxo-1,2-dihydro-1,5-naphthyridin-4-yl)piperazine-2-carboxylic acid]	3.82	4.62	–	–
CC[C@H]1CN(C(c2ccc(F)cc2)c2csc(C(F)(F)F)n2)[C@H](CC)CN1c1cc(=O)n(C)c2ccc(C#N)nc12 (single isomer, unassigned) [Example 1362]	7.30	6.80	–	–
C[C@@H]1CN(c2cc(=O)n(C)c3ccc(C#N)nc23)[C@@H](C)CN1C(c1ccc(Cl)cc1)c1ccncn1 (single isomer, unassigned) [Example 397]	4.80	5.74	–	–
CC(c1ccc(F)c(C#N)c1)N1C[C@H](C)N(c2cc(=O)n(C)c3ccc(C#N)nc23)C[C@H]1C (some centres unmarked) [Example 1262]	5.89	5.27	–	–
C[C@@H]1CN(c2cc(=O)n(C)c3ccc(C#N)nc23)[C@@H](C)CN1C(c1ccc(F)cc1)c1nnc(C2CC2)s1 (stereo partly drawn) [Example 774, 8-((2S,5R)-4-((5-cyclopropyl-1,3,4-thiadiazol-2-yl)(4-fluorophenyl)methyl)-2,5-dimethylpiperazin-1-yl)-5-methyl-6-oxo-5,6-dihydro-1,5-naphthyridine-2-carbonitrile]	–	–	5.96	6.20
CC(c1ccc(OC(F)(F)F)cc1)N1C[C@@H](C)N(c2cc(=O)n(C)c3ccc(C#N)nc23)C[C@@H]1CO (single isomer, unassigned) [Example 1180]	5.85	5.12	–	–
COC(CN1C[C@H](C)N(c2cc(=O)n(C)c3ccc(C#N)nc23)C[C@H]1C)c1ccc(F)cc1 (stereo partly drawn) [Example 561, 8-((2S,5R)-4-(2-(4-fluorophenyl)-2-methoxyethyl)-2,5-dimethylpiperazin-1-yl)-5-methyl-6-oxo-5,6-dihydro-1,5-naphthyridine-2-carbonitrile]	5.00	5.15	–	–
Cn1c(=O)cc(N2CCN(C(c3ccc(F)cc3)c3ccc(F)cc3)C(COC(F)F)C2)c2nc(C#N)ccc21 (single isomer, unassigned) [Example 1186]	4.52	< 3.60	–	–
Cc1nc2c(C(C)N3C[C@H](C)N(c4cc(=O)n(C)c5ccc(C#N)nc45)C[C@H]3C)cccc2o1 (single isomer, unassigned) [Example 1261]	5.96	5.38	–	–
COC(=O)c1ccc(C(C)N2CCN(c3c(C#N)c(=O)n(C)c4ccc(C#N)nc34)C[C@H]2C)cc1 (some centres unmarked) [Example 980]	–	–	4.89	5.24
Cc1nccc(C(c2ccc(F)cc2)N2CCN(c3c(C#N)c(=O)n(C)c4ccc(C#N)nc34)C[C@H]2C)n1 (stereo partly drawn) [Example 315, 8-((3R)-4-((4-fluorophenyl)(2-methylpyrimidin-4-yl)methyl)-3-methylpiperazin-1-yl)-5-methyl-6-oxo-5,6-dihydro-1,5-naphthyridine-2,7-dicarbonitrile]	5.74	5.39	–	–
C[C@@H]1CN(c2c(C#N)c(=O)n(C)c3ccc(C#N)nc23)CCN1C(c1ccc(Cl)cc1)c1ccc(F)cn1 (single isomer, unassigned) [Example 900]	–	–	6.10	5.59
CC(c1ccc(C(=O)O)cc1)N1C[C@H](C)N(c2c(C#N)c(=O)n(C)c3ccc(C#N)nc23)C[C@H]1C (some centres unmarked) [Example 787]	–	–	4.08	3.70
Cn1c(=O)cc(N2CCN(Cc3ccc(F)cc3Cl)C(COC(F)F)C2)c2nc(C#N)ccc21 (single isomer, unassigned) [Example 1184, 8-(4-(2-chloro-4-fluorobenzyl)-3-((difluoromethoxy)methyl)piperazin-1-yl)-5-methyl-6-oxo-5,6-dihydro-1,5-naphthyridine-2-carbonitrile]	4.96	3.96	–	–
CCC(c1ccc(OC(F)(F)F)cc1F)N1C[C@H](CC)N(c2cc(=O)n(C)c3ccc(C#N)nc23)C[C@H]1CC (single isomer, unassigned) [Example 1058]	6.24	6.12	–	–
Cn1c(=O)cc(N2CC(C3CC3)N(C(c3ccc(F)cc3)c3ccc(F)cc3)CC2C2CC2)c2nc(C#N)ccc21 (single isomer, unassigned) [Example 152, 8-(4-(bis(4-fluorophenyl)methyl)-2,5-dicyclopropylpiperazin-1-yl)-5-methyl-6-oxo-5,6-dihydro-1,5-naphthyridine-2-carbonitrile]	3.62	5.11	–	–
Cc1ncc(C(c2ccc(Cl)cc2)N2C[C@H](C)N(c3cc(=O)n(C)c4ccc(C#N)nc34)C[C@H]2C)cn1 (stereo partly drawn) [Example 385, 8-((2S,5R)-4-((4-chlorophenyl) (2-methylpyrimidin-5-yl)methyl)-2,5-dimethylpiperazin-1-yl)-5-methyl-6-oxo-5,6-dihydro-1,5-naphthyridine-2-carbonitrile]	5.20	5.48	–	–
Cc1cc(OC(F)(F)F)ccc1CN1C[C@H](C)N(c2cc(=O)n(C)c3ccc(C#N)nc23)C[C@H]1C [Example 608]	5.04	5.80	–	–
Cc1ccc(C(c2ccc(Cl)cc2)N2C[C@H](C)N(c3c(C#N)c(=O)n(C)c4ccc(C#N)nc34)C[C@H]2C)cc1 (some centres unmarked) [Example 826]	–	–	5.51	4.37
CC[C@@H]1CN(c2cc(=O)n(C)c3ccc(C#N)nc23)[C@@H](C)CN1C(c1cccc(F)c1)c1ccc(F)cn1 (single isomer, unassigned) [Example 1108]	7.05	7.51	–	–
CC[C@@H]1CN(c2cc(=O)n(C)c3ccc(C#N)nc23)[C@@H](C)CN1C(C)c1ccc(Cl)cc1F (single isomer, unassigned) [Example 1353]	6.29	6.34	–	–
